# Test results taken from patent US8921082B2, “Method for producing xylitol from lignocellulosic hydrolysates without detoxification” (priority 2009, dated 2014).
# Tested on: Candida sp. strain
# Test: Tolerance of the strain Candida sp. to furfural (xylose fermentation with furfural added)
# Assay type: cell-based
# Method: The fermentation medium contained 97 g/L sterilized synthetic xylose solution with furfural in a concentration range of 1-3 g/L added. The fermentation temperature is controlled at 30° C., the agitation of the incubator is maintained at 150 rpm, and the ratio of the inocula size of the culture and the volume of the fermentation medium is 1:6 (v/v).
compound,measurement,setting,value
O=Cc1ccco1 [furfural],tolerance of the strain to furfural,"97 g/L synthetic xylose solution, furfural 1-3 g/L added, 30° C., 150 rpm",higher than 3 g/L
same,xylitol yield,furfural 1-3 g/L in 97 g/L synthetic xylose solution,higher than 0.7 g/g
same,xylose fermentation capacity of the strain,"furfural 3 g/L, 97 g/L synthetic xylose solution, compared with no furfural",the same as that without furfural
